In US8153631B2, “Triazole compounds and uses related thereto” (Amgen Inc., priority 2003, dated 2012):
Where a name gives a salt, the structure may show the parent alone.

Molecular target: T1, human HSD1 (recombinant HSD1) (Homo sapiens, UniProt P28845)
T1 construct: made in house
Experiment: In vitro HSD1 activity inhibitory action, SPA of cortisone to cortisol conversion
Assay type: biochemical
Conditions: recombinant human HSD1 0.1 μg/ml, 500 μM NADPH, 16 nM 3H cortisone, room temperature 90 min, read-out: hHSD1 IC50
Protocol: In Vitro HSD1 (Hydroxysteroid Dehydrogenase 1) Activity Inhibitory Action
The HSD1 inhibitory activity was examined by quantitative determination by an SPA (scintillation proximity assay) system of the suppressive action on the conversion from cortisone to cortisol using human HSD1 (hereinafter recombinant HSD1) expressed using a baculo-virus system as an enzyme source. For the reaction, a reagent was added to a 96 well plate (96 well Opti-plates™-96 (Packard)) to the following final concentration and a volume of 100 μl was reacted at room temperature for 90 min. The reaction solution used was 0.1 μg/ml recombinant HSD1, 500 μM NADPH, 16 nM ^3H cortisone (Amersham Biosciences, 1.78 Tbq/mol) dissolved in 0.1% BSA (Sigma)-containing PBS and the test drug was 2 μl of a compound solution (dissolved in DMSO). After 90 min, the reaction was stopped by adding PBS (40 μl, containing 0.1% BSA (Sigma)) containing 0.08 μg of anti-cortisol mouse monoclonal antibody (East Coast Biologics), 365 μg SPA PVT mouse antibody-binding beads (Amersham Biosciences) and 175 μM carbenoxolone (Sigma) to the reaction solution. After the completion of the reaction, the plate was incubated overnight at room temperature and the radioactivity was measured by Topcount (Packard). For control, the value (0% inhibition) of the well containing 2 μl of DMSO instead of the test drug was used, and for positive control, the value (100% inhibition) of the well containing carbenoxolone instead of the test drug at the final concentration of 50 μM was used. The inhibition (%) of the test drug was calculated by ((value of control−value of test drug)/(value of control−value of positive control))×100 (%). The IC50 value was analyzed using a computer-based curve fitting soft.

T1 sequence (P28845 whole entry): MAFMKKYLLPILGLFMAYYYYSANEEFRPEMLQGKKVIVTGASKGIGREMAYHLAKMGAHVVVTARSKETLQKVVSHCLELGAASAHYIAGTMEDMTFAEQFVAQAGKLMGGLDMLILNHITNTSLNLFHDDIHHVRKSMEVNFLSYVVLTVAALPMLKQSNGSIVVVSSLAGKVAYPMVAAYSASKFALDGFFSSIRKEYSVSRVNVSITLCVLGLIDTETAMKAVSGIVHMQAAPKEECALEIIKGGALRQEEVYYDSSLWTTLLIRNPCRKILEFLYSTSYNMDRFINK

Structure (SMILES) | IC50
Cn1c(C2CCN(c3c(Cl)cncc3Cl)CC2)nnc1C1(c2ccc(Cl)cc2)CC1 [Ex. 1-1, 3′,5′-dichloro-4-(5-(1-(4-chlorophenyl)cyclopropyl)-4-methyl-4H-[1,2,4]triazol-3-yl)-3,4,5,6-tetrahydro-2H-[1,4′]bipyridyl hydrochloride] | 10 to 1000 nM
Cn1c(N2CCC(C(F)(F)F)CC2)nnc1C1(c2ccccc2)CC1 [Ex. 2-15] | < 10 nM
Cn1c(N2CCC(CCO)CC2)nnc1C1(c2ccccc2)CC1 [Ex. 2-61] | < 10 nM
Cn1c(-c2ccc(N3CCNCC3)cc2Cl)nnc1C1(c2ccccc2)CC1 [Ex. 1-48] | 10 to 1000 nM
OCCn1c(C2CCN(c3c(Cl)cncc3Cl)CC2)nnc1C1(c2ccccc2)CC1 [Ex. 1-5] | < 10 nM
CC(=O)N1CCN(c2ccc(-c3nnc(C4(c5ccccc5)CC4)n3C)c(Cl)c2)CC1 [Ex. 1-49] | < 10 nM
COC1(c2ccccc2)CCN(c2nnc(C3(c4ccccc4)CC3)n2C)CC1 [Ex. 2-42] | 10 to 1000 nM
Cn1c(-c2ccc(N3CCNC3=O)cc2Cl)nnc1C1(c2ccccc2)CC1 [Ex. 1-39] | < 10 nM
Cn1c(-c2ccc(C(=O)N3CCCCC3)cc2Cl)nnc1C1(c2ccccc2)CC1 [Ex. 1-80] | 10 to 1000 nM
Cn1c(C2CCN(c3c(Cl)cncc3Cl)CC2)nnc1C1(c2ccccc2)CC1 [Ex. 1-15] | < 10 nM
Cn1c(-c2cc(Cl)ccc2Cl)nnc1C1(c2ccc(F)cc2)CC1 [Ex. 1-122] | < 10 nM
Cn1c(C2(c3ccccc3)CC2)nnc1[C@H]1CC[C@H](Oc2ccc(Cl)cc2Cl)CC1 [Ex. 1-11] | 10 to 1000 nM
CNC(=O)c1cccc(OC2CCN(c3nnc(C4(c5ccccc5)CC4)n3C)CC2)c1 [Ex. 2-56] | 10 to 1000 nM
Cn1c(-c2ccc(N3CCCCC3)cc2Cl)nnc1C1(c2ccccc2)CC1 [Ex. 1-53] | < 10 nM
Cn1c(-c2ccc(C(=O)NCC(N)=O)cc2Cl)nnc1C1(c2ccccc2)CC1 [Ex. 1-82] | < 10 nM
COC(=O)c1cccc(OC2CCN(c3nnc(C4(c5ccccc5)CC4)n3C)CC2)c1 [Ex. 2-49] | < 10 nM
Cn1c(-c2ccc(N3CCCC3)cc2Cl)nnc1C1(c2ccccc2)CC1 [Ex. 1-57] | < 10 nM
CC(C)n1c(-c2cccc(N3CCOC3=O)c2)nnc1C1(c2ccc(F)cc2)CC1 [Ex. 1-154] | < 10 nM
Cn1c(N2CCC(C)(O)CC2)nnc1C1(c2ccccc2)CC1 [Ex. 2-59] | < 10 nM
CN(O)C(=O)Nc1ccc(-c2nnc(C3(c4ccccc4)CC3)n2C)c(Cl)c1 [Ex. 1-137] | < 10 nM
Cn1c(-c2ccc(NC(=O)CN3CCCC(O)C3)cc2Cl)nnc1C1(c2ccccc2)CC1 (stereo not shown) [Ex. 1-44] | 10 to 1000 nM
Cn1c(N2CCNCC2)nnc1C1(c2ccccc2)CC1 [Ex. 2-26] | 10 to 1000 nM
Cn1c(N2CCC(Oc3ccc(Cl)c(C(N)=O)c3)CC2)nnc1C1(c2ccccc2)CC1 [Ex. 2-66] | 10 to 1000 nM
Cn1c(-c2ccncc2Cl)nnc1C1(c2ccccc2)CC1 [Ex. 1-96] | < 10 nM

Structure (SMILES) | IC50
Cn1c(-c2ccc(NS(C)(=O)=O)cc2Cl)nnc1C1(c2ccccc2)CC1 [Ex. 1-22] | < 10 nM
Cn1c(C2CCN(Cc3ccc(Cl)cc3Cl)CC2)nnc1C1(c2ccccc2)CC1 [Ex. 1-12] | 10 to 1000 nM
CC(=O)N1CCC(c2nnc(C3(c4ccccc4)CC3)n2C)CC1 [Ex. 1-4] | 10 to 1000 nM
Cn1c(-c2ccc(N3CCOCC3)cc2Cl)nnc1C1(c2ccccc2)CC1 [Ex. 1-90] | < 10 nM
Cn1c(-c2ccc(O)cc2Cl)nnc1C1(c2ccccc2)CC1 [Ex. 1-68] | < 10 nM
Cn1c(-c2ccc(Cl)cc2F)nnc1C1(c2ccccc2)CC1 [Ex. 1-95] | < 10 nM
CN(c1ccccc1)c1nnc(C2(c3ccccc3)CC2)n1C [Ex. 2-93] | < 10 nM
CC(C)n1c(-c2ccc(Cl)cc2)nnc1C1(c2ccc(F)cc2)CC1 [Ex. 1-106] | < 10 nM
CN(C)C(=O)Nc1ccc(-c2nnc(C3(c4ccccc4)CC3)n2C)c(Cl)c1 [Ex. 1-33] | 10 to 1000 nM
Cn1c(-c2ccccc2Cl)nnc1C1(c2ccccc2)CC1 [Ex. 1-101] | < 10 nM
COC1CCN(C(=O)Nc2ccc(-c3nnc(C4(c5ccccc5)CC4)n3C)c(Cl)c2)CC1 [Ex. 1-40] | 10 to 1000 nM
CC(C)Cn1c(N2CCC(Oc3ncc(Cl)cc3Cl)CC2)nnc1C1(c2ccccc2)CC1 [Ex. 2-77] | 10 to 1000 nM
Cn1c(-c2ccc(Cl)cc2N)nnc1C1(c2ccccc2)CC1 [Ex. 1-94] | 10 to 1000 nM
Cn1c(N2CCC(Oc3cccc(C(=O)O)c3)CC2)nnc1C1(c2ccccc2)CC1 [Ex. 2-45] | 10 to 1000 nM
CC(=O)Nc1ccc(-c2nnc(C3(c4ccccc4)CC3)n2C)c(Cl)c1 [Ex. 1-21] | < 10 nM
COCCNC(=O)C1CCN(c2ccc(-c3nnc(C4(c5ccccc5)CC4)n3C)c(Cl)c2)CC1 [Ex. 1-110] | < 10 nM
Cn1c(N2CCC(C)(C(=O)O)CC2)nnc1C1(c2ccccc2)CC1 [Ex. 2-69] | 10 to 1000 nM
CN(C(=O)OC(C)(C)C)C1CCN(c2nnc(C3(c4ccccc4)CC3)n2C)CC1 [Ex. 2-11] | 10 to 1000 nM
COC(=O)c1ccc(-c2nnc(C3(c4ccccc4)CC3)n2C)c(Cl)c1 [Ex. 1-70] | < 10 nM
Cn1c(N2CCC(Oc3ccc(F)cc3)CC2)nnc1C1(c2ccccc2)CC1 [Ex. 2-51] | < 10 nM
Cn1c(-c2ccc(N3CCCC3=O)cc2Cl)nnc1C1(c2ccccc2)CC1 [Ex. 1-27] | 10 to 1000 nM
Cn1c(-c2ccc(C(N)=O)cc2Cl)nnc1C1(c2ccc(F)cc2)CC1 [Ex. 1-127] | < 10 nM
COC(=O)C1CCN(c2nnc(C3(c4ccccc4)CC3)n2C)CC1 [Ex. 2-4] | 10 to 1000 nM
COC(=O)c1ccccc1OC1CCN(c2nnc(C3(c4ccccc4)CC3)n2C)CC1 [Ex. 2-50] | 10 to 1000 nM

Structure (SMILES) | IC50
Cn1c(-c2ccc(Br)cc2Cl)nnc1C1(c2ccccc2)CC1 [Ex. 1-100] | < 10 nM
Cn1c(-c2ccc(N)cc2Cl)nnc1C1(c2ccccc2)CC1 [Ex. 1-26] | < 10 nM
Cn1c(N2CCC(Oc3ccc(Cl)cn3)CC2)nnc1C1(c2ccccc2)CC1 [Ex. 2-39] | < 10 nM
Cn1c(-c2ccc(N3CCC(O)C3)cc2Cl)nnc1C1(c2ccccc2)CC1 (stereo not shown) [Ex. 1-131] | < 10 nM
Cn1c(C2(c3ccccc3)CC2)nnc1[C@H]1CC[C@H](C(N)=O)CC1 [Ex. 1-112] | < 10 nM
Cn1c(N2CCC(NC(=O)OC(C)(C)C)CC2)nnc1C1(c2ccccc2)CC1 [Ex. 2-7] | 10 to 1000 nM
Cn1c(C2(c3ccccc3)CC2)nnc1[C@H]1CC[C@H](CO)CC1 [Ex. 1-105] | < 10 nM
Cn1c(-c2ccc(Cl)cc2Cl)nnc1C1(c2ccc(F)cc2)CC1 [Ex. 1-107] | < 10 nM
Cn1c(N2CCC(c3ccccc3)CC2)nnc1C1(c2ccccc2)CC1 [Ex. 2-1, 1-[4-methyl-5-(1-phenylcyclopropyl)-4H-[1,2,4]triazol-3-yl]-4-phenylpiperidine] | < 10 nM
Clc1cnc(OC2CCN(c3nnc(C4(c5ccccc5)CC4)n3C3CC3)CC2)c(Cl)c1 [Ex. 2-78] | < 10 nM
CC(C)n1c(-c2cccc(C(N)=O)c2)nnc1C1(c2ccc(F)cc2)CC1 [Ex. 1-161] | < 10 nM
Cn1c(N2CCN(c3ccc(Cl)cc3)CC2)nnc1C1(c2ccccc2)CC1 [Ex. 2-90] | 10 to 1000 nM
Cn1c(-c2ccc(N3CCN(S(C)(=O)=O)CC3)cc2Cl)nnc1C1(c2ccccc2)CC1 [Ex. 1-50] | < 10 nM
Cn1c(-c2ccc(NC(=O)CO)cc2Cl)nnc1C1(c2ccccc2)CC1 [Ex. 1-23] | < 10 nM
CC(C)n1c(-c2cccc(C(N)=O)c2)nnc1C1(c2ccccc2)CC1 [Ex. 1-160] | < 10 nM
Cn1c(C2(c3ccccc3)CC2)nnc1[C@H]1CC[C@H](C(=O)O)CC1 [Ex. 1-111] | 10 to 1000 nM
Cn1c(-c2ccc(C(=O)NCCN3CCOCC3)cc2Cl)nnc1C1(c2ccccc2)CC1 [Ex. 1-88] | 10 to 1000 nM
Cn1c(N2CCC(Oc3ccc(F)cc3Cl)CC2)nnc1C1(c2ccccc2)CC1 [Ex. 2-36] | < 10 nM
CC(C)C(=O)N1CCN(c2ccc(-c3nnc(C4(c5ccccc5)CC4)n3C)c(Cl)c2)CC1 [Ex. 1-51] | < 10 nM
Cn1c(-c2ccc(NC3CCN(C(=O)OC(C)(C)C)CC3)cc2Cl)nnc1C1(c2ccccc2)CC1 [Ex. 1-32] | < 10 nM
CN(C)C(=O)C1CCN(c2nnc(C3(c4ccccc4)CC3)n2C)CC1 [Ex. 2-19] | 10 to 1000 nM
Cn1c(-c2ccccn2)nnc1C1(c2ccccc2)CC1 [Ex. 1-98] | 10 to 1000 nM
